According to patent US5578643A, “Protective prostaglandins for use in conjunction with chemotherapeutic agents” (Loyola University of Chicago, priority 1994, dated 1996):

Tests used:
[1] = test system: mice given graded doses of doxorubicin (DOX); assay: DOX dose response: dose killing 50% of the mice within 15 days, alone or after PG or WR-2721; format: in vivo; conditions: for effect on DOX dose necessary to kill 50% of mice: 10 μg of 16,16-dimethyl PGE2 or 25 μg of SC-44932, 2 hours before graded doses of doxorubicin, n=8, FIG. 6
Description: The open triangle is data of a group of 10 mice given WR-2721, 30 minutes before administration of 0.75 mg of doxorubicin. (The lines are computer fit spline curves through the data; n=24 per data point on each curve).
(The lines are computer fit spline curves through the data; n=8 per data point for each of the PG-treated groups and n=24 for the data points of mice treated only with doxorubicin).
It was observed that all acute deaths due to DOX treatment alone occurred before day 15 following DOX administration. Subsequently, the parameter of death within 15 days was used to investigate the DOX dose response administered IP alone or 2 hours after 40 μg of misoprostol was given subcutaneously (sc). In this study, a dose of about 0.5 mg of DOX/average 30 gram mouse, killed 50% of the DOX treated mice (see FIG. 5).
A comparison of PG-induced protection was made to that of protection by WR-2721; an agent reported to protect from some chemotherapeutic agents. […] Two other PGs representing different structural prostaglandins than misoprostol were also investigated for their effectiveness in protecting mice from mortality resulting from administration of graded doses of DOX.

[2] = test system: hair medullary cells; assay: Number of hair medullary cells four days after a single dose of chemotherapeutic agent, with or without misoprostol; format: in vivo, CF1 mice; conditions: 4 days after single IP dose: DOX 0.3, CTX 1, VP-16-213 0.3, ARA-C 8, HU 10, 5 FU 1.0, Methotrexate 0.2, Bleomycin 0.05, Mitomycin C 0.01, Cisplatin 0.25, Carboplatin 1.0, Taxol 0.6 mg; untreated control 51.4 ± 0.6
Description: FIG. 13 is a representation of photographs of shafts of hair showing a single line of medullary cells in control mice (Panel A) and in mice 4 days after they were given a single dose of 0.3 mg of VP-16-213 (Panel B).
Number of Hair Medullary Cells as a Measure of Protection from Injury caused by Chemotherapeutic Agents.
The shafts of hair in CF1 mice contain usually a single line of about 50±1 medullary cells. These cells are very sensitive to cytotoxic agents (see Potten, C. S., Geng, L., and Taylor, P., Hair Medullary Cell Counts: a Simple and Sensitive Indicator of Radiation Exposure. Int. J Radiat. Biol., 57:13-21, 1990). Single doses of cytotoxic chemotherapeutic agents greatly reduce the number of medullary cells which reach a nadir at 4 days after administration of the agent. This cell system has been used for the evaluation of misoprostol-induced protection from several chemotherapeutic agents.
CF1 mice had hair from an area of their rump plucked to induce anagen growth as described in Example 2 above. […] In separate groups, mice received misoprostol (40 μg/average 30 g mouse) either subcutaneously or applied topically 2 hours before each of the chemotherapeutic agents listed above. Untreated controls were used since it has been previously determined that water, or 2% EtOH in water, or phosphate buffer at pH=6.8 (the vehicles for the all agents used) had no influence on the cell counts compared to untreated controls. Twenty-five hairs from each animal of each group were dissected from Feulgen stained samples taken from the mice 4 days after treatment.
The number of medullary cells was averaged (n=4) for each treatment group and the results for all chemotherapeutic agents tested to date are presented in Table I.

[3] = test system: skin (hair follicles); assay: Hair count after a single dose of doxorubicin, with or without PGE1; format: in vivo, mice; conditions: FIG. 11
Description: FIG. 11 is a graph illustrating the number of hairs per 4.16 sq. mm of skin area in control mice, in mice that received 0.5 mg of doxorubicin or in mice that received 10 μg of PGE1 2 hours before receiving 0.5 mg of doxorubicin. (Data are the means of 6 mice (2 field/mouse)±SEM.)
(§1) The hair counts from skin fields of control (open bar), DOX (striped bar) and misoprostol+DOX (filled bar) treated mice are shown in FIG. 9. […] Misoprostol given before DOX increased the hair count to 213±7.8. […] Since prostaglandin receptors are not evenly distributed, protection may not be evenly distributed. PGE1 is associated with the skin (hair follicles) but not with the gut. The ability of PGE1 to protect the skin (hair follicles) and the small intestine from cell injury caused by doxorubicin was tested. […] A single dose of 0.5 mg of doxorubicin reduced this count to 43±8. Administration of 10 μg of PGE1 prior to administration of doxorubicin provided protection as indicated by the increase in the number of hairs to 111±12. […] More evidence is presented in Example 3.

[4] = test system: small intestine; assay: Intestinal microcolonies in DOX treated mice, with or without PGE1; format: in vivo; conditions: FIG. 12
Text: (Data are the means of 4 mice±1 SEM.)
as §1

[5] = Survival of mice (percent survival over 15 days) after doxorubicin, with or without prior prostaglandin; conditions: mouse, in vivo, ip, 0.5 mg
Description: (§2) FIG. 1 is a graph illustrating percent survival of mice over 15 days as a function of the time interval (in hours) between the administration of misoprostol and the subsequent administration of doxorubicin. (The two curves represent duplicate experiments; 12 animals per experiment.)
(§3) FIG. 2 is a graph illustrating the percent survival of mice over 15 days following the administration of 0.5 mg of doxorubicin (open circles) and mice given 40 μg of misoprostol 2 hours before administration of 0.5 mg of doxorubicin (filled circles). (N=16 for each group).
(§4) FIG. 3 is a graph illustrating the percent survival of mice over 15 days following the administration of 0.75 mg of doxorubicin (open circles) and mice given 40 μg of misoprostol 2 hours before administration of 0.75 mg of doxorubicin (filled circles). (N=16 for each group).
(§5) Mortality of mice is a measure of PG-induced protection from death due to severe normal tissue injury inflicted by chemotherapy agents.
(§6) This assay was accomplished by injecting intraperitoneally (IP) separate groups of mice with a range of doses of chemotherapeutic agents. […] In some groups of mice, longevity was recorded by plotting the number of animals remaining alive (percent survival) versus time following the administration of the chemotherapeutic agent.
(§7) PG-induced protection from the toxic chemotherapeutic agents was measured by subcutaneous (SC) injection of the PG at various times prior to or after the IP administration of the chemotherapeutic agent. […] The time interval was varied from 15 minutes to 5 hours. The two curves represent two separate experiments with 20 mice in each experiment. The "0" time point is the percentage of mice that survived 15 days after administration of doxorubicin alone.

[6] = test system: mice given doxorubicin (DOX); assay: as above; conditions: 0.75 mg of DOX IP alone; n=16; FIG. 3
Description: as §2, §3, §4, §5, §6, §7

[7] = test system: white blood cells (WBCs) in the peripheral circulation; assay: WBC counts and differential counts in peripheral blood of DOX treated mice; format: in vivo
Description: FIG. 7 is a graph illustrating the protective effect of misoprostol (given 2 hours before doxorubicin) on WBC counts compared to the effect of doxorubicin alone on WBC counts as function of time (in days). (The numbers 1 and 2 are duplicate studies.)
Death within 15 days of DOX treatment alone is most likely associated with bone marrow injury. […] DOX, therefore, appears to not only reduce the total WBC, but has a particularly marked effect on lymphocytes.

[8] = test system: hair follicles; assay: Hair count / hair loss (alopecia) caused by chemotherapeutic agents, 5 daily treatments; format: in vivo, mice; conditions: 0.1 mg DOX daily for 5 days IP; controls 248±5; FIG. 9
Description: Panel C is a representation of a photomicrograph of an animal given 40 μg of misoprostol, 2 hours before the 0.1 mg daily dose of doxorubicin given each day for 5 days.
(Data are the means of 6 mice (2 fields/mouse)±1 SEM.)
Amount of Hair Loss as a Measure of PG-induced Protection from Alopecia caused by Chemotherapeutic Agents.
One of the side effects of chemotherapy in cancer patients is hair loss or alopecia. Studies were conducted to measure a possible protective effect of PGs from alopecia caused by chemotherapeutic agents. […] The hairs on the rumps of mice (n=4/group) were plucked to induce a growth or anagen cycle within hair follicles which continues for about 18 days. […] Control groups (n=4) received no treatment or misoprostol alone.

[9] = test system: humans; conditions: WR-2721 in large protective doses; cited from earlier work
[10] = test system: kidney; conditions: bolus infusions of cisplatin; Glover et al.; cited from earlier work

Molecule: C/C=C/C=C/[C@](C)(O)C/C=C/C1C(O)CC(=O)C1CC/C=C\CCC(=O)OC (mixture of isomers) [SC-44932, (±) methyl, 7-[3α-hydroxy-2β-(4R-hydroxy-4-methyl-1E, 5E,7E-nonatrienyl)-5-oxo-1α-cyclopentyl]-4-Z-heptenoate]
- effect on DOX dose necessary to kill 50% of mice [1]: increased the DOX dose necessary to kill 50% of a population (n=8) of mice

Molecule: bleomycin
- Number of Medullar Cells ± 1 SEM, chemotherapeutic agent IP alone [2]: 30.4 ± 1.4

Molecule: O=P1(N(CCCl)CCCl)NCCCO1 (stereo not drawn) [CTX, cytoxan]
- Number of Medullar Cells ± 1 SEM, chemotherapeutic agent IP alone [2]: 22.1 ± 1.9

Molecule: N.N.[Cl][Pt][Cl] [Cisplatin, cisplatin]
- Number of Medullar Cells ± 1 SEM, chemotherapeutic agent IP alone [2]: 25.9 ± 1.5

Molecule: CCCCC(C)(C)[C@H](O)/C=C/[C@H]1[C@H](O)CC(=O)[C@@H]1C/C=C\CCCC(=O)O [16,16-dimethyl PGE2, 16,16-dimethyl prostaglandin E2]
- effect on DOX dose necessary to kill 50% of mice [1]: increased the DOX dose necessary to kill 50% of a population (n=8) of mice

Molecule: CCCCC[C@H](O)/C=C/[C@H]1[C@H](O)CC(=O)[C@@H]1CCCCCCC(=O)O [PGE1]
- number of hairs, PGE1 + doxorubicin ([3]; 10 μg of PGE1 2 hours before 0.5 mg doxorubicin): 111±12 hairs per 4.16 sq. mm
- number of intestinal colonies per circumference, PGE1 + DOX ([4]; 10 μg of PGE1 (b62 prints .rho.g) 2 hours before 0.5 mg doxorubicin): did not change

Molecule: N.N.O=C([O-])C1(C(=O)[O-])CCC1.[Pt+2] [Carboplatin, carboplatin]
- Number of Medullar Cells ± 1 SEM, chemotherapeutic agent IP alone [2]: 37.8 ± 2.4

Molecule: COc1cccc2c1C(=O)c1c(O)c3c(c(O)c1C2=O)C[C@@](O)(C(=O)CO)C[C@@H]3O[C@H]1C[C@H](N)[C@H](O)[C@H](C)O1 [DOX, doxorubicin]
- survival at 360 h [5]: ~25%
- mortality, DOX alone [6]: All of the mice were dead by six days
- WBCs in the peripheral circulation, DOX alone ([7]; 0.5 mg DOX/30 gram mouse, FIG. 7): sharply reduced over 7 days following treatment
- percentage of lymphocytes, DOX alone ([7]; 0.5 mg of DOX, differential counts, control mice about 85%): less than 10%
- number of hairs, doxorubicin alone ([3]; single dose of 0.5 mg doxorubicin, control 237±5): 43±8 hairs per 4.16 sq. mm
- dose of DOX that killed 50% of the mice, DOX alone ([1]; IP, death within 15 days, FIG. 5): about 0.5 mg of DOX/average 30 gram mouse
- time of all acute deaths due to DOX treatment alone (before day) ([1]; following DOX administration): < 15 days
- Number of Medullar Cells ± 1 SEM, chemotherapeutic agent IP alone [2]: 18.3 ± 1.7
- number of hairs, DOX alone [8]: 144±3 hairs per 4.42 sq. mm
- number of intestinal colonies per circumference, DOX alone ([4]; 0.5 mg of doxorubicin): 6±0.3 intestinal colonies per circumference

Molecule: NCCCNCCSP(=O)(O)O [WR-2721, S-2-(3-aminopropylamino) ethylphosphorothioxic acid]
- protection of mice from DOX by WR-2721 ([1]; WR-2721 30 minutes before 0.75 mg of doxorubicin, n=10, FIG. 5): did not protect mice (n=10) from DOX treatment
- side effects in humans [9]: causes hypotension, nausea, and vomiting in humans
- kidney protection from cisplatin injury [10]: protect the kidney from injury caused by bolus infusions of cisplatin
